According to ChEMBL document CHEMBL3991601, “The target landscape of clinical kinase drugs” (Science, 2017):
Calls of active or inactive are those of the source. For most assays here, no stated cut-off is given here; in the data, actives have a measured Kd and inactives only a lower limit.

Tests used:
[1] = target: Mitogen-activated protein kinase kinase kinase kinase 5 (Homo sapiens, UniProt Q9Y4K4)
Ephrin type-B receptor 6 = target: T1, Ephrin type-B receptor 6 (Homo sapiens, UniProt O15197)
T1 sequence (O15197 whole entry): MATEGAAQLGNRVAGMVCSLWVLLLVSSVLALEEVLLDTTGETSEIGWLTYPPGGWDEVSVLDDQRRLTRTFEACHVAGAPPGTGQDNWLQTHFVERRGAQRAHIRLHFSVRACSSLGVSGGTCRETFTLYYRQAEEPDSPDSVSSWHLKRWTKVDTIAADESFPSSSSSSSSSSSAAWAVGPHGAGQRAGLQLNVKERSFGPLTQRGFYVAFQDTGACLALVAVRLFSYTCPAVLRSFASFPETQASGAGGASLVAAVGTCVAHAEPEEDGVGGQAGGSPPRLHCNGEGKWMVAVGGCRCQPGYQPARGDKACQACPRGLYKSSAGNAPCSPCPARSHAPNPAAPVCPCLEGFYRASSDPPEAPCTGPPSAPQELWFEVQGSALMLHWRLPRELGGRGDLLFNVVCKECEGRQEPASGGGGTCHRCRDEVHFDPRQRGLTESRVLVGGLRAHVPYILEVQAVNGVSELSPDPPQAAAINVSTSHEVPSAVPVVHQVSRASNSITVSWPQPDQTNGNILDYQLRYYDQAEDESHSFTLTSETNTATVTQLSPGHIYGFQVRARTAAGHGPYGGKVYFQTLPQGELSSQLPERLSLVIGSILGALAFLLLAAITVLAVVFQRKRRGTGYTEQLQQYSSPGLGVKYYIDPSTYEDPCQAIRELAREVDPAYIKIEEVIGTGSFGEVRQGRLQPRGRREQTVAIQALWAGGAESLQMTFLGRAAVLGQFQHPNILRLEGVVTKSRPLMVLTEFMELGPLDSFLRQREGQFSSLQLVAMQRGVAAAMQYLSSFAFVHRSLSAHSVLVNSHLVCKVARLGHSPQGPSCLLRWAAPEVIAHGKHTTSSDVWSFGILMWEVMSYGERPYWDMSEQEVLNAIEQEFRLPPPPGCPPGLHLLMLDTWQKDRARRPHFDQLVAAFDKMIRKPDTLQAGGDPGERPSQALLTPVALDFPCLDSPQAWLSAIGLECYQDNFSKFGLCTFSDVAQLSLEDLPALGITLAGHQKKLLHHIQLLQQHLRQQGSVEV

[2] = target: T2, Serine/threonine-protein kinase Chk1 (Homo sapiens, UniProt O14757)
T2 sequence (O14757 whole entry): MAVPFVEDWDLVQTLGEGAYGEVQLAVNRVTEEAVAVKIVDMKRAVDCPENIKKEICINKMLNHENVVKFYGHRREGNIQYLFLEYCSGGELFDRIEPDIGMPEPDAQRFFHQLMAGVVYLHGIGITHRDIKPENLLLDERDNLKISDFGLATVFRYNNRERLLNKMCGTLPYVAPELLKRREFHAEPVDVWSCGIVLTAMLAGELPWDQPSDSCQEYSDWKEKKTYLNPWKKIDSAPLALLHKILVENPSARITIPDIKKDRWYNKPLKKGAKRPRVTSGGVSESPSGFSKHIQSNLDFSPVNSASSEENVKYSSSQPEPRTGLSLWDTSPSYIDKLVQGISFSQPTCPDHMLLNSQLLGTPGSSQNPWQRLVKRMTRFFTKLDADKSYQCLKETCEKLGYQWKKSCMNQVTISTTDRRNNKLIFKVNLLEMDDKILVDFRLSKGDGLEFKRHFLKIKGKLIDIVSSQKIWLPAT

[3] = target: Eukaryotic translation initiation factor 2-alpha kinase 1 (Homo sapiens, UniProt Q9BQI3)
Chain of Eukaryotic translation initiation factor 2-alpha kinase 1 (Q9BQI3 whole entry): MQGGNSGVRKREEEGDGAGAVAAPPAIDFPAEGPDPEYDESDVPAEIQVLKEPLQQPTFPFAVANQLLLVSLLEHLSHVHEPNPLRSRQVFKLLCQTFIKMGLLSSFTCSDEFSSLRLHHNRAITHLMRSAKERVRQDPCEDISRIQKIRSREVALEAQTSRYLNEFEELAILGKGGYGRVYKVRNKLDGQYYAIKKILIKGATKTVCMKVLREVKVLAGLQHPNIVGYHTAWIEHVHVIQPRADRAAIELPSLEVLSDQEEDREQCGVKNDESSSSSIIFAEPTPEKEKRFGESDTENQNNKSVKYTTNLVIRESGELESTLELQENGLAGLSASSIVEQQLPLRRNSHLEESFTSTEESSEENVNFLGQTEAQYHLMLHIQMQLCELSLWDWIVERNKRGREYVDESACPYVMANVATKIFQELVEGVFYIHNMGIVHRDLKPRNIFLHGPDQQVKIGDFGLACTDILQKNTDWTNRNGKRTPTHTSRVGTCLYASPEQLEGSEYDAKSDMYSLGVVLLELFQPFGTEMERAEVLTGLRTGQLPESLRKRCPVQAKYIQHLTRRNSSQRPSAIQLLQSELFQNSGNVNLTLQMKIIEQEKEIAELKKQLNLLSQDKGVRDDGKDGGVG

[4] = target: T3, ATP-dependent RNA helicase DDX42 (Homo sapiens, UniProt Q86XP3)
T3 sequence (Q86XP3 whole entry): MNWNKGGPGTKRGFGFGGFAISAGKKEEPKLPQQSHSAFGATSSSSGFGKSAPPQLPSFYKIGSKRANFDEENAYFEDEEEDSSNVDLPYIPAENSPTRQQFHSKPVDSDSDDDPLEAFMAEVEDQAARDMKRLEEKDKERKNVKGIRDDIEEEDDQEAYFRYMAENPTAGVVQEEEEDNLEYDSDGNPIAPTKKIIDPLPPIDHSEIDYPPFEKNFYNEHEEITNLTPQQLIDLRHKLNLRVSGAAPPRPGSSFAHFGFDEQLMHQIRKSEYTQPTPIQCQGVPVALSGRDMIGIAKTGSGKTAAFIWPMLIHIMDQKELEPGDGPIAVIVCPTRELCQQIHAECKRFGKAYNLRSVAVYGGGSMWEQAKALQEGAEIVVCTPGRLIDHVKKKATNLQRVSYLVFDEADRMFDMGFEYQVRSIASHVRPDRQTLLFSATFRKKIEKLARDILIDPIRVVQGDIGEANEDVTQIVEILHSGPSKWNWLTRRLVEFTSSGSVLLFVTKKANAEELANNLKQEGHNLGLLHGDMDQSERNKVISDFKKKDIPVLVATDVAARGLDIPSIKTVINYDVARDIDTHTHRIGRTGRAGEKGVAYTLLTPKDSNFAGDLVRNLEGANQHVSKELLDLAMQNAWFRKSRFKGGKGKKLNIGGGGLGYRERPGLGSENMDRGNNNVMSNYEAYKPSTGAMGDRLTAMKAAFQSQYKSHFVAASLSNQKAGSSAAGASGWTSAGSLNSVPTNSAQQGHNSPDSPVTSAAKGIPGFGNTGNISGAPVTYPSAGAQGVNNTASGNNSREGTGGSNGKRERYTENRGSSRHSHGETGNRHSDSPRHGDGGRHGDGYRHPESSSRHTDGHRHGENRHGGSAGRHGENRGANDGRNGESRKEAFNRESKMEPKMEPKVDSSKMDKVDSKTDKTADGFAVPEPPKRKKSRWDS

[5] = target: Cyclin-dependent kinase 6 (Homo sapiens, UniProt Q00534)
Chain of Cyclin-dependent kinase 6 (Q00534 whole entry): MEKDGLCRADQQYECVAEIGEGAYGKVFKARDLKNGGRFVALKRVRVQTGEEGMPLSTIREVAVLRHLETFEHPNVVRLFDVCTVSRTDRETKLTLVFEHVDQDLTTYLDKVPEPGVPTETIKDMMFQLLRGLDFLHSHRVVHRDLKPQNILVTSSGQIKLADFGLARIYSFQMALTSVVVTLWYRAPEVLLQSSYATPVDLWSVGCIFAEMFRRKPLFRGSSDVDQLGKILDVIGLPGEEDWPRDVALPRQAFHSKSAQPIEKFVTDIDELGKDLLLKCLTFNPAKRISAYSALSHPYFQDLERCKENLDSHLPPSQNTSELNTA

[6] = target: Mitogen-activated protein kinase kinase kinase kinase 4 (Homo sapiens, UniProt O95819)
Chain of Mitogen-activated protein kinase kinase kinase kinase 4 (O95819 whole entry): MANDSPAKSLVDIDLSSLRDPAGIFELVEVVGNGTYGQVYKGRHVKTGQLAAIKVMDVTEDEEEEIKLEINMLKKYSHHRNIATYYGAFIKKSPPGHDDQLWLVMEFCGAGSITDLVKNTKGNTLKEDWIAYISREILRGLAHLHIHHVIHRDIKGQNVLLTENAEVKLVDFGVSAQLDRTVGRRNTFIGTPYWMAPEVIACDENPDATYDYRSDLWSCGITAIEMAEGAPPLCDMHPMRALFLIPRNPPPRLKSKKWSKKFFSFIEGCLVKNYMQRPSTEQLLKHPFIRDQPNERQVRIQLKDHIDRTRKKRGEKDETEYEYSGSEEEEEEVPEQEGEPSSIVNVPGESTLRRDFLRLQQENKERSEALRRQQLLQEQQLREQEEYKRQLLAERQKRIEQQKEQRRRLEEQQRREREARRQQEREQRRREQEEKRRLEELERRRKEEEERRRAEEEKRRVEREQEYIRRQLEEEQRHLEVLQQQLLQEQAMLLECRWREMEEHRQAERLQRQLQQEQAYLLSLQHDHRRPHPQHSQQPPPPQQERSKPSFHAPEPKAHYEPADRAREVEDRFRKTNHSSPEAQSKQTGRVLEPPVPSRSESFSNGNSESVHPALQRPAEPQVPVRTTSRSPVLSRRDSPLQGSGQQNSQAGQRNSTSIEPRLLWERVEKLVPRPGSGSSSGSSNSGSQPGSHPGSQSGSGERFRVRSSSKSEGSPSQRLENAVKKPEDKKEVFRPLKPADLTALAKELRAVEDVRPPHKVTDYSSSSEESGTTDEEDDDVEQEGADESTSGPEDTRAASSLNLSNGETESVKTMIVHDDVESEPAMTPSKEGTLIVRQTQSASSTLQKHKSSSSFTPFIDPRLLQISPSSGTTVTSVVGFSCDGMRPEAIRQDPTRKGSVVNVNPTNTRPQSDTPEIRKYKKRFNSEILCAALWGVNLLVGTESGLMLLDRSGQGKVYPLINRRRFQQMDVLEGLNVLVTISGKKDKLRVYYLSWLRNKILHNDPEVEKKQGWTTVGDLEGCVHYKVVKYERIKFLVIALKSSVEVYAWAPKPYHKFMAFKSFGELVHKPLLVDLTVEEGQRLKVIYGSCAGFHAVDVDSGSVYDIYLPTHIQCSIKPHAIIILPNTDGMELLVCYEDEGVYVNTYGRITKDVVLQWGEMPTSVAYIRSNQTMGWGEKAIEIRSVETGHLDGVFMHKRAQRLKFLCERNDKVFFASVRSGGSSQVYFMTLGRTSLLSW

Chain of Mitogen-activated protein kinase kinase kinase kinase 5 (Q9Y4K4 whole entry): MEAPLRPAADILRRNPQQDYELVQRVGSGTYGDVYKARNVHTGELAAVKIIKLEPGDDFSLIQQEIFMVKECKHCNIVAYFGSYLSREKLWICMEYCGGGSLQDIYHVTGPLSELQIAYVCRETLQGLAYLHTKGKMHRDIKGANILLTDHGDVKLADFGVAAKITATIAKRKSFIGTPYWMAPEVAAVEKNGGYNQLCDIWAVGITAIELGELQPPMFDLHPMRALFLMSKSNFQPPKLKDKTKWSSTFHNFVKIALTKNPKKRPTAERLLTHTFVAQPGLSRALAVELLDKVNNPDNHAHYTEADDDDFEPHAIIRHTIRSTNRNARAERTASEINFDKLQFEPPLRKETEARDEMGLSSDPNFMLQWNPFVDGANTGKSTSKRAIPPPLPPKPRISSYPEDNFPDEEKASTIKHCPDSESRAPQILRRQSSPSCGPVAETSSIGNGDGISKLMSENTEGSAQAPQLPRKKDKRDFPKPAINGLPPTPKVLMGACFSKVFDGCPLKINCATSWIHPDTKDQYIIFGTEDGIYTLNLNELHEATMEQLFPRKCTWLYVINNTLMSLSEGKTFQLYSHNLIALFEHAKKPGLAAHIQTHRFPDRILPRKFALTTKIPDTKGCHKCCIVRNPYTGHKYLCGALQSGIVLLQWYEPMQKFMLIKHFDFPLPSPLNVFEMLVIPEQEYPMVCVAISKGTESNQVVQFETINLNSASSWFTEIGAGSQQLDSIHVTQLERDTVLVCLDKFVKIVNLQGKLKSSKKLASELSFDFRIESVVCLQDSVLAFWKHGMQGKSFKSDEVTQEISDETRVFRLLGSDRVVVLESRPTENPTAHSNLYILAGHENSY

SMILES	Kd [1]	Kd (Ephrin type-B receptor 6)	Kd [2]	Kd [3]	Kd [4]	Kd [5]	Kd [6]
CNC(=O)c1cc(COc2nnc(Nc3ccc(Cl)cc3)c3ccoc23)ccn1 [TELATINIB]	> 30 µM (inactive)	> 30 µM (inactive)	> 30 µM (inactive)	> 30 µM (inactive)	> 30 µM (inactive)	> 30 µM (inactive)	> 30 µM (inactive)
COc1cccc2cc(-c3nc([C@H]4CC[C@H](C(=O)O)CC4)n4ncnc(N)c34)[nH]c12 [OSI-027]	> 30 µM (inactive)	> 30 µM (inactive)	> 30 µM (inactive)	> 30 µM (inactive)	> 30 µM (inactive)	> 30 µM (inactive)	> 30 µM (inactive)
Cc1ccc(C(=O)Nc2ccc(Oc3cc4cnn(C)c4cc3-c3cn[nH]c3)c(F)c2)c(=O)n1-c1ccc(F)cc1 [MERESTINIB]	> 30 µM (inactive)	> 30 µM (inactive)	> 30 µM (inactive)	> 30 µM (inactive)	> 30 µM (inactive)	> 30 µM (inactive)	> 30 µM (inactive)
CC(C)(O)CC(=O)NCCn1ccc2ncnc(Nc3ccc(Oc4cccc(C(F)(F)F)c4)c(Cl)c3)c21 [TAK-285]	> 30 µM (inactive)	1.85 µM	> 30 µM (inactive)	> 30 µM (inactive)	> 30 µM (inactive)	> 30 µM (inactive)	> 30 µM (inactive)
CNC(=O)c1cccc(-c2ccc3c(N4CCOC[C@@H]4C)nc(N4CCOC[C@@H]4C)nc3n2)c1 [VISTUSERTIB]	> 30 µM (inactive)	> 30 µM (inactive)	> 30 µM (inactive)	> 30 µM (inactive)	> 30 µM (inactive)	> 30 µM (inactive)	> 30 µM (inactive)
C=CC(=O)Nc1cc(Nc2nccc(-c3cn(C)c4ccccc34)n2)c(OC)cc1N(C)CCN(C)C [OSIMERTINIB]	> 30 µM (inactive)	> 30 µM (inactive)	> 30 µM (inactive)	> 30 µM (inactive)	> 30 µM (inactive)	> 30 µM (inactive)	> 30 µM (inactive)
COc1ccc2c(OCc3nnc4ccc(-c5ccccc5)nn34)ccnc2c1 [AMG-208]	> 30 µM (inactive)	> 30 µM (inactive)	> 30 µM (inactive)	> 30 µM (inactive)	> 30 µM (inactive)	> 30 µM (inactive)	> 30 µM (inactive)
CC(C)CC(=O)Nc1[nH]nc2c1CN(C(=O)C1CCN(C)CC1)C2(C)C [PHA-793887]	> 30 µM (inactive)	> 30 µM (inactive)	> 30 µM (inactive)	> 30 µM (inactive)	> 30 µM (inactive)	> 30 µM (inactive)	> 30 µM (inactive)
O=c1[nH]c([C@@H]2CCCN2)nc2c1oc1ccc(Cl)cc12	> 30 µM (inactive)	> 30 µM (inactive)	> 30 µM (inactive)	> 30 µM (inactive)	> 30 µM (inactive)	> 30 µM (inactive)	> 30 µM (inactive)
NC(=O)c1ccc(N(C(N)=O)c2c(F)cccc2F)nc1-c1ccc(F)cc1F [VX-702]	> 30 µM (inactive)	> 30 µM (inactive)	> 30 µM (inactive)	> 30 µM (inactive)	> 30 µM (inactive)	> 30 µM (inactive)	> 30 µM (inactive)
COCCN1CCN(Cc2ccc(-c3n[nH]c4c3C(=O)c3c(NC(=O)NN5CCOCC5)cccc3-4)cc2)CC1 [RGB-286638]	> 30 µM (inactive)	> 30 µM (inactive)	> 30 µM (inactive)	3.8 µM (active)	> 30 µM (inactive)	> 30 µM (inactive)	0.127 µM
C=CC(=O)Nc1cccc(Nc2nc(Nc3ccc(N4CCN(C(C)=O)CC4)cc3OC)ncc2C(F)(F)F)c1 [ROCILETINIB]	> 30 µM (inactive)	> 30 µM (inactive)	> 30 µM (inactive)	> 30 µM (inactive)	> 30 µM (inactive)	> 30 µM (inactive)	> 30 µM (inactive)
O=C(NOC[C@H](O)CO)c1ccc(F)c(F)c1Nc1ccc(I)cc1F [MIRDAMETINIB]	> 30 µM (inactive)	> 30 µM (inactive)	> 30 µM (inactive)	> 30 µM (inactive)	> 30 µM (inactive)	> 30 µM (inactive)	> 30 µM (inactive)
O=C(NC[C@H](O)CO)c1ccncc1Nc1ccc(I)cc1F [PIMASERTIB]	> 30 µM (inactive)	> 30 µM (inactive)	> 30 µM (inactive)	> 30 µM (inactive)	> 30 µM (inactive)	> 30 µM (inactive)	> 30 µM (inactive)
NC[C@@](O)(c1ccc(Cl)cc1)c1ccc(-c2cn[nH]c2)cc1 [AT-13148]	> 30 µM (inactive)	> 30 µM (inactive)	> 30 µM (inactive)	> 30 µM (inactive)	> 30 µM (inactive)	> 30 µM (inactive)	> 30 µM (inactive)
COc1cc2nccc(Oc3ccc(NC(=O)C4(C(=O)Nc5ccc(F)cc5)CC4)cc3)c2cc1OC [CABOZANTINIB]	> 30 µM (inactive)	> 30 µM (inactive)	> 30 µM (inactive)	> 30 µM (inactive)	> 30 µM (inactive)	> 30 µM (inactive)	> 30 µM (inactive)
C[C@@H]1COC(Nc2ccc3ncnc(Nc4ccc(OCc5nccs5)c(Cl)c4)c3c2)=N1 [VARLITINIB]	> 30 µM (inactive)	> 30 µM (inactive)	> 30 µM (inactive)	> 30 µM (inactive)	> 30 µM (inactive)	> 30 µM (inactive)	> 30 µM (inactive)
Cc1c(NC(=O)OC[C@@H]2COCCN2)cn2ncnc(Nc3ccc4c(cnn4Cc4cccc(F)c4)c3)c12 [AC-480]	> 30 µM (inactive)	> 30 µM (inactive)	> 30 µM (inactive)	> 30 µM (inactive)	> 30 µM (inactive)	> 30 µM (inactive)	> 30 µM (inactive)
COc1ccc(-c2ccc3ncc4c(c3c2)n(-c2ccc(N3CCNCC3)c(C(F)(F)F)c2)c(=O)n4C)cn1 [BGT-226 FREE BASE]	> 30 µM (inactive)	> 30 µM (inactive)	> 30 µM (inactive)	> 30 µM (inactive)	> 30 µM (inactive)	> 30 µM (inactive)	> 30 µM (inactive)
